The nature of experiment [1]: Descriptive sensory evaluation of traumatic acid and 3-dodecenedioic acid in sugar water. To be noted: 5 ppm in sugar water (4% sucrose), summary statement. As to the method: Sugar water (4% sucrose in drinking water) was prepared and used as a base solution. Traumatic acid (purchased from Cayman Chemical Company) and 3-dodecenedioic acid (isolated from a B. nivea extract) were added to the sugar water and taste descriptive sensory evaluations were performed (Table 2).

A short description of experiment [2]: Comparison of sweetness and mouthfeel enhancement and off-flavor masking of sebacic acid with analogs. To be noted: at 2 ppm; analogs: adipic, pimelic, suberic, undecanedioic, dodecanedioic, 1,11-undecanedicarboxylic, tetradecanedioic, hexadecanedioic acid.
Experiment [3] can be described thus: Descriptive sensory evaluation of sebacic acid in different applications. The method, then:
Descriptive sensory evaluations were carried out using different amounts of sebacic acid in different applications.

Experiment [4] is described as follows: Descriptive sensory evaluation of traumatic acid in different applications. As to the method:
Descriptive sensory evaluations were carried out using different amounts of traumatic acid in different applications.

Each structure is given as a SMILES string.

As to `O=C(O)CC=CCCCCCCCC(=O)O` [3-Dodecenedioic acid, 3-dodecenedioic acid], the “Enhancement of sweetness and mouthfeel of sugar water” value in experiment [1] is “enhanced the sweetness and mouthfeel of sugar water”. In experiment [2], the “Sweetness and mouthfeel enhancement as well as off-flavor masking, compared among dicarboxylic acids” value is “the strongest and the longest-lasting effect”.

As for `O=C(O)CCCCCCCCC(=O)O` [Sebacic Acid, decanedioic acid], the “Taste Evaluation” value was “Fatty and oily” in experiment [3] (sebacic acid 40 ppm in 3% Sugar + 0.05% Citric Acid Water Solution); “Fatty and oily” in experiment [3] (sebacic acid 40 ppm in Water).

As to `O=C(O)C=CCCCCCCCCC(=O)O` [Traumatic acid, 2-dodecenedioic acid], the “Enhancement of sweetness and mouthfeel of sugar water” value in experiment [1] was “enhanced the sweetness and mouthfeel of sugar water”. Also, the “Sweetness and mouthfeel enhancement as well as off-flavor masking, compared among dicarboxylic acids” value in experiment [2] was “the strongest and the longest-lasting effect”. Also, the “Taste Evaluation” value is “Fatty and oily” in experiment [4] (traumatic acid 40 ppm in 3% Sugar + 0.05% Citric Acid Water Solution); “Fatty and oily” in experiment [4] (traumatic acid 40 ppm in Water).

Source of the values: patent US20210368837A1, “BOEHMERIA NIVEA COMPOSITIONS AND METHODS FOR TASTE MODULATION” (INTERNATIONAL FLAVORS & FRAGRANCES INC., priority 2018, published 2021).
